The record followed here is the NIST ThermoML archive (doi:10.1021/je050455+).

SMILES strings stand for the structures. Numbers after ± are expanded uncertainties.

In general, mass density refers to the mass of a sample divided by its volume.

For this data set the following is noted: 293.15 K; 101.33 kPa; Liquid; Vibrating tube method.

For `Cc1n(CCO)cc[n+]1C.F[B-](F)(F)F` [1-(2-hydroxyethyl)-2,3-dimethylimidazolium tetrafluoroborate], the mass density is 1360 ± 20 kg/m3. With `C[n+]1ccn(CCO)c1.F[B-](F)(F)F` [1-(2-hydroxyethyl)-3-methylimidazolium tetrafluoroborate] the figure was 1330 ± 20 kg/m3.
